Series [1] relates to human HCT-15 colon carcinoma. The format is in vivo, female BALB/c nude mice. The procedure:
(§1) Female or male BALB/c nu/nu (nude) mice are kept under sterile conditions (10 to 12 mice per Type III cage) with free access to food and water. Mice weigh between 20 and 25 grams at the time of tumor implantation. Tumors are established by subcutaneous injection of cells (minimum 2×10^6 cells in 100 μl PBS or medium) in carrier mice (4-8 mice per cell line). The resulting tumors are serially passaged for a minimum of three consecutive transplantations prior to start of treatment. Tumor fragments (approx. 25 mg) are implanted s.c. into the left flank of animals with a 13-gauge trocar needle while the mice are exposed to Forene (Abbott, Switzerland) anesthesia.
(§2) Tumor growth and body weights are monitored once or twice weekly. All treatments are administered intravenously (i.v.) and are initiated when a mean tumor volume of approximately 100 to 250 mm^3 is attained, depending upon the tumor type. Tumor volumes are determined using the formula […] (see Cancer Chemother. Pharmacol. 24:148-154, [1989]). Treatments with epothilone B vary the dose and the frequency of administration. Comparator agents are administered according to previously determined optimal treatment regimens. In addition to presenting changes in tumor volumes over the course of treatment, antitumor activity is expressed as T/C% (mean increase of tumor volumes of treated animals divided by the mean increase of tumor volumes of control animals multiplied by 100). Tumor regression (%) represents the smallest mean tumor volume compared to the mean tumor volume at the start of treatment, according to the formula Regression (%)=(1−Vend/Vstart)×100 (Vend=final mean tumor volume, Vstart=mean tumor volume at the start of treatment. Any animals in which the tumor has reached a size exceeding approximately 1.5 to 2.5 cm^3 are sacrificed. Details can be found below.
Tumor fragments of approximately 25 mg are implanted into the left flank of each female nude mouse (n=8 per group). Treatments are started on day 14 after tumor transplantation. Epothilone B is administered once at 4 mg/kg, i.v. on day 14.5-Fluorouracil is administered at 75 mg/kg, i.v., on days 14 and 21. TAXOL® is administered i.v. at 20 mg/kg/day, every second day for 5 treatments (days 14, 16, 18, 20 and 22). Antitumor activity is expressed as T/C% (mean increase of tumor volumes of treated animals divided by the mean increase of tumor volumes of control animals multiplied by 100). Tumor regression (%) represents the final mean tumor volume compares to the mean tumor volume at the start of treatment. Δ Tumor volumes represent the tumor volume on the last treatment day minus the tumor volume on the first treatment day. Statistical analyses on Δ tumor volumes uses Dunnett's test to compare treatment groups to controls. Statistical analyses on body weight changes uses paired t-tests comparing body weights before treatment to those at the end of treatment; mice weigh ˜20-25 g at the start of treatment. Not significant is indicated by the abbreviation ,ns”. Data presented are means±SEM from animals surviving to the end of the experiment.

The subject of series [2] is human COLO 205 colon tumors. The format is in vivo, female BALB/c nude mice. Conditions: 75 mg/kg, i.v. every 7 days; day 32. The procedure: as §1, §2
Tumor fragments of approximately 25 mg are implanted into the left flank of each female nude mouse (n=7 per group); a subcutaneous estrogen pellet is placed on the opposite flank. Treatments are started on day 14 after tumor transplantation. epothilone B is administered at 4 mg/kg, i.v., either once or once per week (days 14, 21, 28) or every second week (days 14 and 28). 5-fluorouracil is administered i.v. at 75 mg/kg on days 14, 21, 28. Data presented are from animals surviving to day 32, four days after the last treatments. Antitumor activity is expressed as T/C% (mean increase of tumor volumes of treated animals divided by the mean increase of tumor volumes of control animals multiplied by 100). Tumor regression (%) represents the final mean tumor volume compared to the mean tumor volume at the start of treatment. Changes (A) in tumor volumes represent the tumor volume on the last treatment day minus the tumor volume on the first treatment day.

For another series, the system named is ZR-75-1 (Breast). Nature of the series: Antiproliferative assay, ZR-75-1. It counts as cell-based. Conditions: Homo sapiens, 120 h, 5 d exposure, mean ± SD, n = 3, read-out: IC50-values for growth inhibition. On the procedure:
(§3) Antiproliferative assays are performed as previously described (Int. J. Cancer 43, 851-6 (1989)). Briefly, cells are seeded at 1.5×10^3 cells/well into 96-well microtiter plates and incubated overnight. Compounds are added in serial dilutions on day 1. The plates are then incubated for an additional 2 to 5 days, allowing for at least one cell doubling (cell line dependent), after which the cells are fixed with 3.3% v/v glutaraldehyde, washed with water and stained with 0.05% w/v methylene blue. After washing, the dye is eluted with 3% V/V HCl and the optical density measured at 665 nm with a SpectraMax 340 (Bucherer, Basel, Switzerland). IC50 values are determined by a computerized system (SoftPro, Bucherer, Basel, Switzerland) using the formula (OD test−OD start)/(OD control−OD start)×100. IC50 is defined as the drug concentration which leads to 50% of cells per well compared to control cultures (100%) at the end of incubation period.

Series [3] concerns KB-8511 (Epidermoid, MDR). The series is described as follows: Antiproliferative assay, KB-8511. The format is cell-based. Conditions: Homo sapiens, 48 h, 2 d exposure, mean ± SD, read-out: IC50-values for growth inhibition. The procedure: The human epidermal (mouth) carcinoma cell line KB-8511 (a P-gp over-expressing cell line derived from the epidermoid (mouth) KB-31 carcinoma cell line) is obtained from Dr. R. M. Baker, Roswell Park Memorial Institute (Buffalo, N.Y., USA) (for description see Akiyama et al., Somat. Cell. Mol. Genetics 11, 117-126 (1985) and Fojo A., et al., Cancer Res. 45, 3002-3007 (1985)) and is cultured as previously described (Meyer, T., et al., Int. J. Cancer 43, 851-856 (1989)): KB-8511 cells, like KB-31, are derived from the KB cell line (ATCC) and they are human epidermal carcinoma cells; KB-31 cells can be grown in mono-layer using Dulbecco's modified Eagle's medium (D-MEM) with 10% fetal calf serum (M.A. Bioproducts), L-glutamine (Flow), penicillin (50 units/ml) and streptomycin (50 μg/ml (Flow); they then grow with a doubling time of 22 h, and their relative plating efficiency is approximately 60%.
(§4) Antiproliferative assays are performed as previously described (Int. J. Cancer 43, 851-6 (1989)). […] After washing, the dye is eluted with 3% V/V HCl and the optical density measured at 665 nm with a SpectraMax 340 (Bucherer, Basel, Switzerland). IC50 values are determined by a computerized system (SoftPro, Bucherer, Basel, Switzerland) using the formula (OD test−OD start)/(OD control−OD start)×100. […]

Another series relates to PC-3M (Prostate). Nature of the series: Antiproliferative assay, PC-3M. It counts as cell-based. Conditions: Homo sapiens, 72 h, 3 d exposure, mean ± SD, read-out: IC50-values for growth inhibition. The procedure:
A human androgen-independent prostate cancer cell line is used to establish subcutaneous and orthotopic models in mice. The human metastatic prostate carcinoma PC-3M is obtained from Dr. I. J. Fidler (MD Anderson Cancer Center, Houston, Tex., USA) and is cultured in Ham's F12K media supplemented with 7% v/v FBS. The PC-3M cell line is the result of isolation from liver metastasis produced in nude mice subsequent to intrasplenic injection of PC-3 cells [ATCC CRL 1435; American Type Culture Collection (Rockville, Md., USA)], and they can grow in Eagle's MEM supplemented with 10% fetal bovine serum, sodium pyruvate, non-essential amino acids, L-glutamine, a two-fold vitamin solution (Gibco Laboratories, Long Island, N.Y.) and penicillin-streptomycin (Flow Laboratories, Rockville, Md.). The PC-3M cell line is hormone-insensitive (that is, it grows in the absence of androgens). […] No normal Y chromosomes can be detected by Q-band analysis.
as §4

The test system of a further series is HCT-15 (Colon). The series is described as follows: Antiproliferative assay, HCT-15. The conditions noted are these: Homo sapiens, 120 h, 5 d exposure, mean ± SD, n = 3, read-out: IC50-values for growth inhibition. It counts as cell-based.
Description: Human colorectal adenocarcinoma cell line HCT-15 (ATCC CCL 225) is from the American Type Culture Collection (Rockville, Md., USA), and the cells are cultivated in vitro as recommended by the supplier. HCT-15 is an epithelial-like cell line (Cancer Res. 39: 1020-25 [1979]) that is multi-drug resistant by virtue of over-expression of P-glycoprotein (P-gp, gp170, MDR-1; Anticancer Res. 11: 1309-12 [1991]; J. Biol. Chem. 264: 18031-40 [1989]; Int. J. Cancer 1991; 49: 696-703 [1991]) and glutathione-dependent resistance mechanisms (Int. J. Cancer 1991; 49: 688-95.[1991]).
as §3, with “IC50 is defined as the drug concentration which leads to 50% of cells per well compared to control cultures (100%) at the end of incubation period.” left out

The term T/C denotes the ratio of treated to control. As usually defined, the IC50 is the concentration needed to halve the response being measured.

Take `O=c1[nH]cc(F)c(=O)[nH]1` [5-fluorouracil, reference compound]: in series [1] (75 mg/kg, i.v., on days 14 and 21), the “% Body Weight Change” value was 9 ± 4%. Also, the “D Body Weight” value in series [1] (75 mg/kg, i.v., on days 14 and 21, mean ± SEM) worked out at 2.0 ± 0.7 g. Besides, the “Mortalities (deaths)” value in series [1] (two 75 mg/kg administrations) amounted to 50%. In series [2], the T/C is reported as 18%.

Turning to `CC(=O)O[C@H]1C(=O)[C@@]2(C)[C@H]([C@H](OC(=O)c3ccccc3)[C@]3(O)C[C@H](OC(=O)[C@H](O)[C@@H](NC(=O)c4ccccc4)c4ccccc4)C(C)=C1C3(C)C)[C@]1(OC(C)=O)CO[C@@H]1C[C@@H]2O` [paclitaxel], the IC50 in the series on ZR-75-1 (Breast) was determined as 3.6 ± 1.87 nM; in series [3], 994 nM; with PC-3M (Prostate) it was 6.74 nM; in the series with HCT-15 (Colon), 106 ± 54 nM.

(Values after patent US20040024033A1 (priority 1998, published 2004).)
